Experimental findings from patent US9187472B2 (AbbVie Inc., priority 2012, dated 2015) are described below.

Experiment [1] relates to PC3 cells. The experiment in a line: NAMPT Cell Proliferation Assay. The settings on record: Homo sapiens, PC-3, 120 h, 5 days incubation, cell viability by Cell Titer Glo. In kind it is cell-based. The method, boiled down: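 Following overnight attachment in RPMI with 10% heat-inactivated FBS, PC3 cells at 500 per well receive compounds spanning 10 μM down to 1×10^−5 μM. Growth is assessed by luminescent viability read after 5 days.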
On the technique in general: Cellular ATP, detected with luciferase, serves as a proxy for viable cell number.

The target in experiment [2] is NAMPT (Homo sapiens, UniProt P43490). The experiment in a line: TR-FRET Binding Assay of NAMPT with PRPP. Particulars: with 200 μM PRPP and 2.5 mM ATP; 2 nM NAMPT, 2 nM probe, 16 hours equilibration. The method, boiled down: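 NAMPT 2 nM + probe 2 nM + Tb-anti-His Ab 1 nM; PRPP 200 μM, ATP 2.5 mM, DMSO 2%; 16 h equilibration before TR-FRET read.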
NAMPT, sequence (P43490 whole entry): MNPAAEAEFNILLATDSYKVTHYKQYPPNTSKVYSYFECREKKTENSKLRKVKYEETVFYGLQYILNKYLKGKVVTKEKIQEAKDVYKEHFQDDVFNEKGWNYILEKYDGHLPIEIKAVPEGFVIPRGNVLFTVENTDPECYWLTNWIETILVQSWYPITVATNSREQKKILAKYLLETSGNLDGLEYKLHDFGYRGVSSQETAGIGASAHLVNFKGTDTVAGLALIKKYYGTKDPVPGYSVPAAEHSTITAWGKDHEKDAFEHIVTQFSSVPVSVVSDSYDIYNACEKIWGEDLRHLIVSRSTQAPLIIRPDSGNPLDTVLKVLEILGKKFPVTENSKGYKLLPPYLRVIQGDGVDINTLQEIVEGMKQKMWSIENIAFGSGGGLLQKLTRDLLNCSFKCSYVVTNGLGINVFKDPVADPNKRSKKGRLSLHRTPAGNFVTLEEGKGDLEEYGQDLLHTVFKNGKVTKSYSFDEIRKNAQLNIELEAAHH
For experiment [3], the target named is NAMPT (human, recombinant, C-terminally His-tagged) (Homo sapiens, UniProt P43490). The experiment in a line: Time-Resolved Fluorescence Resonance Energy Transfer (TR-FRET) Binding Assay of NAMPT. The settings on record: without substrates; 6.8 nM NAMPT, 200 nM probe, 3 hours equilibration. Put shortly:
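Read-out is the time-resolved FRET ratio Em520/Em495 (excitation 337 nm) between a terbium anti-His antibody (1 nM) on the enzyme and an Oregon Green 488-labelled nicotinamide-competitive inhibitor probe (200 nM). Enzyme was 6.8 nM, DMSO 2%, pH 7.5 HEPES buffer; 3 h room-temperature equilibration preceded reading.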
On the technique in general: TR-FRET usually uses a lanthanide donor and a delayed reading to cut background.

NAMPT (human, recombinant, C-terminally His-tagged), sequence (P43490 whole entry): as above

In general, IC50 refers to the concentration at which inhibition is half-maximal. Consider `O=C(NCc1ccc2nccn2c1)c1cnc(N(CC2CCOCC2)C(=O)C2CCOC2)s1` (stereo not drawn) [Example 143, N-(imidazo[1,2-a]pyridin-6-ylmethyl)-2-[(tetrahydrofuran-3-ylcarbonyl)(tetrahydro-2H-pyran-4-ylmethyl)amino]-1,3-thiazole-5-carboxamide], for which the figures for the IC50 in experiment [1], in experiment [2] and in experiment [3] were 0.0808 µM, 0.00203 µM and 8.71 µM, respectively.

In the case of `O=C(NCc1ccc2nccn2c1)c1cnc(N(CC2CCOCC2)C(=O)C2CCOCC2)s1` [Example 144, N-(imidazo[1,2-a]pyridin-6-ylmethyl)-2-[(tetrahydro-2H-pyran-4-ylcarbonyl)(tetrahydro-2H-pyran-4-ylmethyl)amino]-1,3-thiazole-5-carboxamide], the IC50 amounted to 0.187 µM in experiment [1], 0.00292 µM in experiment [2] and 9.49 µM in experiment [3].

On to `COCCC(=O)N(C[C@H]1CCCO1)c1ncc(C(=O)NCc2ccc3nccn3c2)s1` [Example 145, N-(imidazo[1,2-a]pyridin-6-ylmethyl)-2-{(3-methoxypropanoyl)[(2R)-tetrahydrofuran-2-ylmethyl]amino}-1,3-thiazole-5-carboxamide], for which the values for the IC50 in experiment [1], in experiment [2] and in experiment [3] were 0.00601 µM, 0.00108 µM and 0.191 µM, respectively.

With `O=C(NCc1ccc2nccn2c1)c1cnc(N(C[C@H]2CCCO2)C(=O)C2CCOC2)s1` (stereo partly drawn) [Example 146, N-(imidazo[1,2-a]pyridin-6-ylmethyl)-2-{(tetrahydrofuran-3-ylcarbonyl)[(2R)-tetrahydrofuran-2-ylmethyl]amino}-1,3-thiazole-5-carboxamide], the values for the IC50 in experiment [1], in experiment [2] and in experiment [3] were 0.00769 µM, 0.000403 µM and 0.261 µM, respectively.

`O=C(NCc1ccc2nccn2c1)c1cnc(N(C[C@H]2CCCO2)C(=O)C2CCOCC2)s1` [Example 147, N-(imidazo[1,2-a]pyridin-6-ylmethyl)-2-{[(2R)-tetrahydrofuran-2-ylmethyl](tetrahydro-2H-pyran-4-ylcarbonyl)amino}-1,3-thiazole-5-carboxamide]: the IC50 in experiment [1] was determined as 0.00669 µM; in experiment [2], 0.00063 µM; in experiment [3] it was 0.251 µM.

As for `COCCC(=O)N(C[C@@H]1CCCO1)c1ncc(C(=O)NCc2ccc3nccn3c2)s1` [Example 148, N-(imidazo[1,2-a]pyridin-6-ylmethyl)-2-{(3-methoxypropanoyl)[(2S)-tetrahydrofuran-2-ylmethyl]amino}-1,3-thiazole-5-carboxamide], the IC50 in experiment [1] turned out to be 0.0415 µM; in experiment [2], 0.00135 µM; in experiment [3], 6.23 µM.

Consider `O=C(NCc1ccc2nccn2c1)c1cnc(N(C[C@@H]2CCCO2)C(=O)C2CCOC2)s1` (stereo partly drawn) [Example 149, N-(imidazo[1,2-a]pyridin-6-ylmethyl)-2-{(tetrahydrofuran-3-ylcarbonyl)[(2S)-tetrahydrofuran-2-ylmethyl]amino}-1,3-thiazole-5-carboxamide], for which the figures for the IC50 in experiment [1], in experiment [2] and in experiment [3] were 0.0266 µM, 0.00486 µM and more than 10 µM, respectively.

In the case of `O=C(NCc1ccc2nccn2c1)c1cnc(N(C[C@@H]2CCCO2)C(=O)C2CCOCC2)s1` [Example 150, N-(imidazo[1,2-a]pyridin-6-ylmethyl)-2-{[(2S)-tetrahydrofuran-2-ylmethyl](tetrahydro-2H-pyran-4-ylcarbonyl)amino}-1,3-thiazole-5-carboxamide], the IC50 in experiment [1] was found to be 0.0362 µM; in experiment [2], 0.00349 µM; in experiment [3], 6.11 µM.

For the compound `COCCNC(=O)N(CC1CCOCC1)c1ncc(C(=O)NCc2ccc3nccn3c2)s1` [Example 151, N-(imidazo[1,2-a]pyridin-6-ylmethyl)-2-{[(2-methoxyethyl)carbamoyl](tetrahydro-2H-pyran-4-ylmethyl)amino}-1,3-thiazole-5-carboxamide], the figures for the IC50 in experiment [1], in experiment [2] and in experiment [3] were 0.0761 µM, 0.00554 µM and 7.15 µM, respectively.

In the case of `CC(C)OCCNC(=O)N(CC1CCOCC1)c1ncc(C(=O)NCc2ccc3nccn3c2)s1` [Example 152, N-(imidazo[1,2-a]pyridin-6-ylmethyl)-2-[{[2-(propan-2-yloxy)ethyl]carbamoyl}(tetrahydro-2H-pyran-4-ylmethyl)amino]-1,3-thiazole-5-carboxamide], the results for the IC50 in experiment [1], in experiment [2] and in experiment [3] were 0.0283 µM, 0.00691 µM and 3.6 µM, respectively.

As for `COCCNC(=O)N(C[C@H]1CCCO1)c1ncc(C(=O)NCc2ccc3nccn3c2)s1` [Example 153, N-(imidazo[1,2-a]pyridin-6-ylmethyl)-2-{[(2-methoxyethyl)carbamoyl][(2R)-tetrahydrofuran-2-ylmethyl]amino}-1,3-thiazole-5-carboxamide], the IC50 in experiment [1] came to 0.00373 µM; in experiment [2] it was 0.00188 µM; in experiment [3], 0.118 µM.

With `CC(C)OCCNC(=O)N(C[C@H]1CCCO1)c1ncc(C(=O)NCc2ccc3nccn3c2)s1` [Example 154, N-(imidazo[1,2-a]pyridin-6-ylmethyl)-2-({[2-(propan-2-yloxy)ethyl]carbamoyl}[(2R)-tetrahydrofuran-2-ylmethyl]amino)-1,3-thiazole-5-carboxamide], the IC50 in experiment [1] came to 0.00667 µM; in experiment [2], 0.0026 µM; in experiment [3], 0.194 µM.

With `COCCNC(=O)N(C[C@@H]1CCCO1)c1ncc(C(=O)NCc2ccc3nccn3c2)s1` [Example 155, N-(imidazo[1,2-a]pyridin-6-ylmethyl)-2-{[(2-methoxyethyl)carbamoyl][(2S)-tetrahydrofuran-2-ylmethyl]amino}-1,3-thiazole-5-carboxamide], the figures for the IC50 in experiment [1], in experiment [2] and in experiment [3] were 0.0176 µM, 0.0023 µM and 3.37 µM, respectively.

Turning to `CC(C)OCCNC(=O)N(C[C@@H]1CCCO1)c1ncc(C(=O)NCc2ccc3nccn3c2)s1` [Example 156, N-(imidazo[1,2-a]pyridin-6-ylmethyl)-2-({[2-(propan-2-yloxy)ethyl]carbamoyl}[(2S)-tetrahydrofuran-2-ylmethyl]amino)-1,3-thiazole-5-carboxamide], the IC50 came to 0.028 µM in experiment [1], 0.00318 µM in experiment [2] and 3.27 µM in experiment [3].

Turning to `CC(C)OCCNC(=O)N(CC1CCOC1)c1ncc(C(=O)NCc2ccc3nccn3c2)s1` (stereo not drawn) [Example 157, N-(imidazo[1,2-a]pyridin-6-ylmethyl)-2-[{[2-(propan-2-yloxy)ethyl]carbamoyl}(tetrahydrofuran-3-ylmethyl)amino]-1,3-thiazole-5-carboxamide], the results for the IC50 in experiment [1], in experiment [2] and in experiment [3] were 0.0292 µM, 0.0011 µM and 4.14 µM, respectively.

On to `O=C(NCc1ccc2nccn2c1)c1cnc(N2CC(c3ccc(Cl)cc3)OC2=O)s1` (stereo not drawn) [Example 158, 2-[5-(4-chlorophenyl)-2-oxo-1,3-oxazolidin-3-yl]-N-(imidazo[1,2-a]pyridin-6-ylmethyl)-1,3-thiazole-5-carboxamide], for which the IC50 in experiment [1] turned out to be 0.191 µM; in experiment [2], 0.00639 µM; in experiment [3], 0.341 µM.

As for `CC(C)C(=O)N1CCC(Oc2ccc(C(=O)NCc3ccc4nccn4c3)cc2)CC1` [Example 159, N-(imidazo[1,2-a]pyridin-6-ylmethyl)-4-{[1-(2-methylpropanoyl)piperidin-4-yl]oxy}benzamide], the IC50 was 0.233 µM in experiment [1], 0.00216 µM in experiment [2] and 2.49 µM in experiment [3].

For the compound `CC(=O)N1CCC(Oc2ccc(C(=O)NCc3ccc4nccn4c3)cc2)CC1` [Example 160, 4-[(1-acetylpiperidin-4-yl)oxy]-N-(imidazo[1,2-a]pyridin-6-ylmethyl)benzamide], the IC50 in experiment [1] came to 0.915 µM; in experiment [2], 0.00126 µM; in experiment [3] it was 3.22 µM.

Turning to `O=C(NCc1ccc2nccn2c1)c1ccc(OC2CCN(C(=O)C3CC3)CC2)cc1` [Example 161, 4-{[1-(cyclopropylcarbonyl)piperidin-4-yl]oxy}-N-(imidazo[1,2-a]pyridin-6-ylmethyl)benzamide], the IC50 in experiment [1] turned out to be 0.635 µM; in experiment [2], 0.00289 µM; in experiment [3], 1.31 µM.

Take `O=C(NCc1ccc2nccn2c1)c1ccc(OC2CCN(C(=O)C3CCOCC3)CC2)cc1` [Example 162, N-(imidazo[1,2-a]pyridin-6-ylmethyl)-4-{[1-(tetrahydro-2H-pyran-4-ylcarbonyl)piperidin-4-yl]oxy}benzamide]: the IC50 came to 0.0436 µM in experiment [1], 0.00209 µM in experiment [2] and 2.57 µM in experiment [3].

As for `O=C(NCc1ccc2nccn2c1)c1ccc(OC2CCN(C(=O)C3COCCO3)CC2)cc1` (stereo not drawn) [Example 163, 4-{[1-(1,4-dioxan-2-ylcarbonyl)piperidin-4-yl]oxy}-N-(imidazo[1,2-a]pyridin-6-ylmethyl)benzamide], the IC50 amounted to 0.0964 µM in experiment [1], 0.00629 µM in experiment [2] and 2.1 µM in experiment [3].

Consider `O=C(NCc1ccc2nccn2c1)c1ccc(OC2CCN(C(=O)[C@@H]3CCCO3)CC2)cc1` [Example 164, N-(imidazo[1,2-a]pyridin-6-ylmethyl)-4-({1-[(2S)-tetrahydrofuran-2-ylcarbonyl]piperidin-4-yl}oxy)benzamide], for which the values for the IC50 in experiment [1], in experiment [2] and in experiment [3] were 0.101 µM, 0.00346 µM and 2.46 µM, respectively.
